# Patent publication US8288371B2, “Ortho pyrrolidine, benzyl-substituted heterocycle CCR1 antagonists for autoimmune diseases and inflammation” (Pharmacopeia, LLC, priority 2007, dated 2012)
# Target: T1, human CCR1 (Homo sapiens, UniProt P32246)
# T1 sequence (P32246 1-355): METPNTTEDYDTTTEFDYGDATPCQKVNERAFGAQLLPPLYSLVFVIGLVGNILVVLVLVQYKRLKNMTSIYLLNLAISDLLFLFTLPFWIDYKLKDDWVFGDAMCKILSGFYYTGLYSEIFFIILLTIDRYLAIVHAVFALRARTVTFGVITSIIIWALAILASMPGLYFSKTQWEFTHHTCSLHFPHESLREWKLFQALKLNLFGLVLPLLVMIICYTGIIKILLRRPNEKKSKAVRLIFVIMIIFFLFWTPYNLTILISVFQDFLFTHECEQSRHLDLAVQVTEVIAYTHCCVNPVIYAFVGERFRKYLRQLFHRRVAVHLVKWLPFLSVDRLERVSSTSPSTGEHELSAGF
# Assay: CCR1 binding protocol (SPA, [125I]-MIP-1α displacement)
# Settings: cell membrane expressing human CCR1, 0.1 nM [125I]-MIP-1α, 4 hours at ambient temperature; read-out: Relative potency (IC50)
# Outline: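 Displacement of 0.1 nM [125I]-MIP-1α (final) from membranes expressing human CCR1 was measured by scintillation proximity after 4 h at ambient temperature. Conditions: pH 7.4 Tris buffer with 0.1% BSA and MnCl, and 0.5 μg membrane per well. Compounds were tested as a 10-step ½-log series from a 10 mM DMSO stock to derive IC50.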
row,SMILES,IC50 [µM]
1,Cc1nnc([C@H]2CCCN2C(=O)Nc2cc(C(=O)N(C)C)ccc2Cl)n1Cc1ccc(Cl)cc1 [Compound 347],< 0.05
2,Cc1ncncc1NC(=O)N1CCC[C@@H]1c1nnc(C)n1Cc1ccc(Cl)cc1 [Compound 348],< 0.05
3,Cc1nnc([C@H]2CCCN2C(=O)Nc2ccc(Cl)cc2F)n1[C@H](C)c1ccc(Cl)cc1 [Compound 349],0.05 to 0.5
4,Cc1nc(Cl)ncc1NC(=O)N1CCC[C@@H]1c1nnc(C)n1Cc1ccc(Cl)cc1 [Compound 350],< 0.05
5,Cc1nnc([C@H]2CCCN2C(=O)NC2(c3ccccc3)CC2)n1[C@@H](C)c1ccc(Cl)cc1 [Compound 351],0.05 to 0.5
6,Cc1nnc([C@H]2CCCN2C(=O)Nc2ccc3c(c2)N(C)C(=O)CO3)n1[C@H](C)c1ccc(Cl)cc1 [Compound 352],0.05 to 0.5
7,Cc1nnc([C@H]2CCCN2C(=O)N[C@H]2CCOc3cc(C(F)(F)F)ccc32)n1[C@H](C)c1ccc(Cl)cc1 [Compound 353],0.05 to 0.5
8,Cc1nnc([C@H]2CCCN2C(=O)Nc2cccc(S(N)(=O)=O)c2)n1Cc1ccc(Cl)cc1 [Compound 354],0.5 to 5
9,Cc1nnc([C@H]2CCCN2C(=O)Nc2ccc(S(N)(=O)=O)cc2)n1Cc1ccc(Cl)cc1 [Compound 355],0.5 to 5
10,Cc1nnc([C@H]2CCCN2C(=O)Nc2cc(-c3ccccc3)nn2C)n1Cc1ccc(Cl)cc1 [Compound 356],< 0.05
11,Cc1nnc([C@H]2CCCN2C(=O)NC2(c3ccccc3)CC2)n1[C@H](C)c1ccc(Cl)cc1 [Compound 357],0.05 to 0.5
12,Cc1nnc([C@H]2CCCN2C(=O)Nc2cc(C(N)=O)ccc2C(F)(F)F)n1Cc1ccc(Cl)cc1 [Compound 358],0.05 to 0.5
13,CNC(=O)c1ccc(C(F)(F)F)c(NC(=O)N2CCC[C@@H]2c2nnc(C)n2Cc2ccc(Cl)cc2)c1 [Compound 359],< 0.05
14,CNC(=O)c1ccc(C)c(N/C(=N/C#N)N2CCC[C@@H]2c2nnc(C)n2Cc2ccc(Cl)cc2)c1 [Compound 360],0.05 to 0.5
15,Cc1cc(C)c(S(C)(=O)=O)cc1NC(=O)N1CCC[C@@H]1c1nnc(C)n1Cc1ccc(Cl)cc1 [Compound 361],< 0.05
16,Cc1ccc(NC(=O)N2CCC[C@@H]2c2nnc(C)n2Cc2ccc(Cl)cc2)c(C)n1 [Compound 362],< 0.05
17,Cc1cc(C)c(C(N)=O)cc1NC(=O)N1CCC[C@@H]1c1nnc(C)n1Cc1ccc(Cl)cc1 [Compound 363],0.05 to 0.5
18,Cc1nnc([C@H]2CCCN2C(=O)Nc2ccc(Cl)cc2F)n1Cc1ccc(Cl)nc1 [Compound 364],0.5 to 5
19,Cc1noc(C)c1NC(=O)N1CCC[C@@H]1c1nnc(C)n1[C@H](C)c1ccc(Cl)cc1 [Compound 365],0.05 to 0.5
20,Cc1noc(C)c1NC(=O)N1CCC[C@@H]1c1nnc(C)n1Cc1ccc(Cl)nc1 [Compound 366],0.05 to 0.5
21,Cc1nnc([C@H]2CCCN2C(=O)Nc2ccc(Cl)cc2F)n1Cc1ccc(F)cc1 [Compound 367],0.05 to 0.5
22,Cc1nnc([C@H]2CCCN2C(=O)N[C@@H]2CCS(=O)(=O)c3ccc(Cl)cc32)n1Cc1ccc(Cl)cc1 [Compound 368],< 0.05
23,Cc1nnc([C@H]2CCCN2C(=O)N[C@H]2CCS(=O)(=O)c3ccc(Cl)cc32)n1Cc1ccc(Cl)cc1 [Compound 369],< 0.05

row,SMILES,IC50 [µM]
1,O=C(N[C@@H]1CCS(=O)(=O)c2ccc(Cl)cc21)N1CCC[C@@H]1c1nnc(CO)n1Cc1ccc(Cl)cc1 [Compound 370],< 0.05
2,O=C(N[C@H]1CCS(=O)(=O)c2ccc(Cl)cc21)N1CCC[C@@H]1c1nnc(CO)n1Cc1ccc(Cl)cc1 [Compound 371],0.05 to 0.5
3,N#C/N=C(\Nc1ccc(C(F)(F)F)cc1)N1CCC[C@@H]1c1nnc(CO)n1Cc1ccc(Cl)cc1 [Compound 372],0.5 to 5
4,N#C/N=C(\N[C@H]1CCOc2cc(C(F)(F)F)ccc21)N1CCC[C@@H]1c1nnc(CO)n1Cc1ccc(Cl)cc1 [Compound 373],0.05 to 0.5
5,N#C/N=C(\NC1(c2ccccc2)CC1)N1CCC[C@@H]1c1nnc(CO)n1Cc1ccc(Cl)cc1 [Compound 374],0.5 to 5
6,Cc1cc(C)c(C(=O)N(C)C)cc1NC(=O)N1CCC[C@@H]1c1nnc(C)n1Cc1ccc(Cl)cc1 [Compound 375],0.05 to 0.5
7,Cc1nnc([C@H]2CCCN2C(=O)Nc2cc(S(C)(=O)=O)ccc2F)n1Cc1ccc(Cl)cc1 [Compound 376],0.05 to 0.5
8,Cc1nnc([C@H]2CCCN2/C(=N/C#N)NCc2ccc(C(F)(F)F)cc2)n1Cc1ccc(Cl)cc1 [Compound 377],0.05 to 0.5
9,Cc1nnc([C@H]2CCCN2C(=O)Nc2ccccc2S(C)(=O)=O)n1Cc1ccc(Cl)cc1 [Compound 378],0.05 to 0.5
10,Cc1nnc([C@H]2CCCN2C(=O)Nc2cc(C(=O)N(C)C)ccc2C(F)(F)F)n1Cc1ccc(Cl)cc1 [Compound 379],0.05 to 0.5
11,CNC(=O)c1cc(NC(=O)N2CCC[C@@H]2c2nnc(C)n2Cc2ccc(Cl)cc2)c(C)cc1C [Compound 380],< 0.05
12,Cc1nnc([C@H]2CCCN2C(=O)Nc2ccc3c(c2)N(C)C(=O)CO3)n1Cc1ccc(Cl)nc1 [Compound 381],0.5 to 5
13,Cc1nnc([C@H]2CCCN2C(=O)N[C@H]2CCOc3cc(C(F)(F)F)ccc32)n1Cc1ccc(Cl)nc1 [Compound 382],0.05 to 0.5
14,Cc1nnc([C@H]2CCCN2C(=O)NC2(c3ccccc3)CC2)n1Cc1ccc(Cl)nc1 [Compound 383],0.05 to 0.5
15,Cc1nnc([C@H]2CCCN2C(=O)Nc2ccc(Cl)cc2F)n1Cc1ccc(Cl)c(Cl)c1 [Compound 384],0.05 to 0.5
16,Cc1noc(C)c1NC(=O)N1CCC[C@@H]1c1nnc(C)n1Cc1ccc(F)cc1 [Compound 385],0.05 to 0.5
17,Cc1nnc([C@H]2CCCN2C(=O)Nc2ccc3c(c2)N(C)C(=O)CO3)n1Cc1ccc(F)cc1 [Compound 386],0.05 to 0.5
18,Cc1nnc([C@H]2C[C@@H](O)CN2C(=O)NC2(c3ccc(C(F)(F)F)cc3)CC2)n1Cc1ccc(Cl)cc1 [Compound 387],< 0.05
19,Cc1nnc([C@H]2C[C@H](O)CN2C(=O)Nc2ccc(C(F)(F)F)cc2)n1Cc1ccc(Cl)cc1 [Compound 388],0.05 to 0.5
20,Cc1nnc([C@H]2C[C@@H](O)CN2C(=O)NC(c2ccccc2)c2ccccc2)n1Cc1ccc(Cl)cc1 [Compound 389],0.05 to 0.5
21,Cc1nnc([C@H]2C[C@@H](O)CN2C(=O)Nc2ccc(Cl)cc2F)n1Cc1ccc(Cl)cc1 [Compound 390],0.5 to 5
22,Cc1nnc([C@H]2C[C@@H](O)CN2C(=O)Nc2ccc(C(F)(F)F)cc2)n1Cc1ccc(Cl)cc1 [Compound 391],0.5 to 5
23,Cc1onc(-c2ccccc2)c1NC(=O)N1C[C@H](O)C[C@@H]1c1nnc(C)n1Cc1ccc(Cl)cc1 [Compound 392],0.05 to 0.5

row,SMILES,IC50 [µM]
1,Cc1nnc([C@H]2C[C@@H](O)CN2C(=O)N[C@H]2CCOc3cc(C(F)(F)F)ccc32)n1Cc1ccc(Cl)cc1 [Compound 393],< 0.05
2,Cc1ccc(NC(=O)N2CCC[C@@H]2c2nnc(C)n2Cc2ccc(Cl)cc2)c(Cl)n1 [Compound 394],0.05 to 0.5
3,Cc1nnc([C@H]2CCCN2C(=O)Nc2ccc(Cl)nc2Cl)n1Cc1ccc(Cl)cc1 [Compound 395],< 0.05
4,Cc1nnc([C@H]2CCCN2C(=O)Nc2ccc(C#N)nc2)n1Cc1ccc(Cl)cc1 [Compound 396],0.05 to 0.5
5,Cc1nn(C)c(C)c1N/C(=N\C#N)N1CCC[C@@H]1c1nnc(C)n1Cc1ccc(Cl)cc1 [Compound 397],0.05 to 0.5
6,Cc1nc(Cl)ccc1NC(=O)N1CCC[C@@H]1c1nnc(C)n1Cc1ccc(Cl)cc1 [Compound 398],< 0.05
7,Cc1nnc([C@H]2CCCN2C(=O)NC2(c3ccccc3)CC2)n1Cc1ccc(F)cc1 [Compound 399],0.05 to 0.5
8,Cc1noc(C)c1NC(=O)N1CCC[C@@H]1c1nnc(C)n1[C@@H](C)c1ccc(Cl)cc1 [Compound 400],0.5 to 5
9,C[C@@H](NC(=O)N1CCC[C@@H]1c1nnc(CO)n1Cc1ccc(Cl)cc1)c1ccc(Cl)cc1 [Compound 401],0.05 to 0.5
10,C[C@H](NC(=O)N1CCC[C@@H]1c1nnc(CO)n1Cc1ccc(Cl)cc1)c1ccc(Cl)cc1 [Compound 402],< 0.05
11,Cc1nnc([C@H]2CCCN2C(=O)N[C@@H]2c3ccccc3C[C@H]2O)n1Cc1ccc(Cl)cc1 [Compound 403],0.05 to 0.5
12,Cc1nc(C(F)(F)F)ccc1NC(=O)N1CCC[C@@H]1c1nnc(C)n1Cc1ccc(Cl)cc1 [Compound 404],< 0.05
13,Cc1nnc([C@H]2CCCN2C(=O)Nc2ccc(Cl)cc2C(F)(F)F)n1Cc1ccc(Cl)cc1 [Compound 405],< 0.05
14,Cc1ccc(S(C)(=O)=O)c(C)c1NC(=O)N1CCC[C@@H]1c1nnc(C)n1Cc1ccc(Cl)cc1 [Compound 406],< 0.05
15,CC[C@H](C)NC(=O)N1CCC[C@@H]1c1nnc(C)n1Cc1ccc(Cl)cc1 [Compound 407],0.05 to 0.5
16,Cc1nnc([C@H]2CCCN2C(=O)Nc2ccc(Cl)c(F)c2)n1Cc1ccc(Cl)cc1 [Compound 408],0.05 to 0.5
17,Cc1cc(Cl)ccc1NC(=O)N1CCC[C@@H]1c1nnc(C)n1Cc1ccc(Cl)cc1 [Compound 409],< 0.05
18,Cc1nnc([C@H]2CCCN2C(=O)N[C@H]2CCOc3cc(C(F)(F)F)ccc32)n1Cc1ccc(Cl)c(Cl)c1 [Compound 410],0.05 to 0.5
19,Cc1nnc([C@H]2CCCN2C(=O)N[C@H]2CCOc3cc(C(F)(F)F)ccc32)n1Cc1ccc(F)cc1 [Compound 411],< 0.05
20,Cc1nnc([C@H]2CCCN2C(=O)NC2(c3ccccc3)CC2)n1Cc1ccc(Cl)c(Cl)c1 [Compound 412],< 0.05
21,CNCc1nnc([C@H]2CCCN2C(=O)N[C@H]2CCOc3cc(C(F)(F)F)ccc32)n1Cc1ccc(Cl)cc1 [Compound 413],0.05 to 0.5
